ChEMBL document CHEMBL3286092, “Discovery of 1-arylpyrrolidone derivatives as potent p53-MDM2 inhibitors based on molecule fusing strategy” (Bioorg Med Chem Lett, 2014)
pKi: −log10 of the molar value.

Legend:
[1] = target: E3 ubiquitin-protein ligase Mdm2 (Homo sapiens, UniProt Q00987); assay: Binding affinity to MDM2 (unknown origin) assessed as inhibition of interaction with p53 after 1 hr by fluorescence polarization binding assay
A549 = assay: Induction of p53 level in human A549 cells after 4 hrs by Western blotting analysis; type: functional, cell-based

E3 ubiquitin-protein ligase Mdm2, sequence (Q00987 whole entry): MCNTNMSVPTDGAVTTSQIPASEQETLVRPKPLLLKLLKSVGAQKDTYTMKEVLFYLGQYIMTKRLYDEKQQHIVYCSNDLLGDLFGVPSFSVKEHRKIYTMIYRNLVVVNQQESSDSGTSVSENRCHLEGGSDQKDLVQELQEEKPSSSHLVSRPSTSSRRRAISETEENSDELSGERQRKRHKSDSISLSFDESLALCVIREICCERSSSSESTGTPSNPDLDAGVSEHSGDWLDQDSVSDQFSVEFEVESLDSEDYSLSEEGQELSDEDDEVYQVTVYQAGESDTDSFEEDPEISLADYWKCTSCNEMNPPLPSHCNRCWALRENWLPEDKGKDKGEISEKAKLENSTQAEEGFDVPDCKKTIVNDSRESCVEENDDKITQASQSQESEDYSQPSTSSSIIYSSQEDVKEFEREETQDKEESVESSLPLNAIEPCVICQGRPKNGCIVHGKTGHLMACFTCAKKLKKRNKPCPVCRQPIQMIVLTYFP

pKi [1] | Structure (SMILES) | Activity (A549)
< 4.00 | C[C@@H](NC1=C(C(=O)c2ccccc2)C(c2ccc(Br)cc2)N(Cc2ccc(C(F)(F)F)cc2F)C1=O)c1ccccc1 (stereo not given in full) | –
< 4.00 | CC(C)OC1=C(C(=O)c2ccccc2)C(c2ccc(Br)cc2)N(Cc2ccc(C(F)(F)F)cc2F)C1=O (stereo not given) | –
< 4.00 | COc1cc(C(F)(F)F)ccc1CN1C(=O)C(N[C@H](C)c2ccccc2)=C(C(=O)c2ccccc2)C1c1ccc(Br)cc1 (stereo not given in full) | –
– | CC(C)Oc1cc(C(F)(F)F)ccc1CN1C(=O)C(N[C@H](C)c2ccccc2)=C(C(=O)c2ccccc2)C1c1ccc(Br)cc1 (stereo not given in full) | Dose-dependent effect
< 4.00 | CC(C)OC1=C(C(=O)c2ccccc2)C(c2ccc(Br)cc2)N(Cc2ccc(C(F)(F)F)cc2OC(C)C)C1=O (stereo not given) | –
